{"source": "ChEMBL document CHEMBL5550203", "about": "“A Comprehensive In Vitro Characterization of a New Class of Indole-Based Compounds Developed as Selective Haspin Inhibitors” (J Med Chem, 2024)", "key": {"[1]": {"details": "human, plasma, 2 h, 10 µM", "description": "Stability in human plasma at 10 uM measured upto 120 mins by LC-MS analysis"}, "[2]": {"details": "rat, plasma, 2 h, 10 µM", "description": "Stability in rat plasma at 10 uM measured upto 120 mins by LC-MS analysis"}, "[3]": {"details": "human, microsomes, 1 h"}, "[4]": {"assay": "physchem", "details": "simulated gastric fluid", "description": "Chemical stability in stimulated gastric fluid assessed as compound remaining at 10 uM measured upto 120 mins by LC-MS analysis"}, "[5]": {"assay": "physchem", "details": "simulated intestinal fluid", "description": "Chemical stability in stimulated intestinal fluid assessed as compound remaining at 10 uM measured upto 120 mins by LC-MS analysis"}}}
{"smiles": "Cc1ccc(NC(=O)c2ccc3c(c2)c(CNCCN2CCNCC2)cn3C)cc1C", "values": [{"measurement": "Stability", "setting": "[1]", "value": "Stable"}, {"measurement": "Stability", "setting": "[2]", "value": "Stable"}, {"measurement": "Stability", "setting": "[3]", "value": "Stable"}, {"measurement": "remaining at 2 h, 10 µM", "setting": "[4]", "value": "> 80", "unit": "%"}, {"measurement": "remaining at 2 h, 10 µM", "setting": "[5]", "value": "> 80", "unit": "%"}]}
